# Results from patent US20240316012A1, “METHODS FOR TREATING LYMPHOMA” (Northwestern University, priority 2023, published 2024).
# Tested on: ACLY (p-ACLY^S455)
# Test: Western blot analysis of p-ACLY^S455
# Type: cell-based, mouse
# Details: overnight in vitro with anti-PD-L1; Wortmannin 20 nM, LY294002 20 μM; 2 μM, 10 μM
# Description: FIGS. 4A-4H show ACLY is a critical effector molecule downstream of PD-1. […] ITK-SYK^+ cells were FACS-sorted from ITK-SYK^CD4-creERT2 mice on d5 after TAM and 12 h anti-PD-L1 or isotype control antibody treatment (i.p., 200 μg). P=paired two-sided Student's t-test. Data are presented as the mean±SD. […] Spleen-derived single-cell suspensions were FACS-sorted from ITK-SYK^CD4-creERT2 mice on d5 after TAM and cultured in vitro overnight with anti-PD-L1 or isotype control antibodies and the PI3K inhibitors (“iPI3K”) Wortmannin (20 nM), LY294002 (20 μM), or DMSO. […] Spleen-derived lymphocytes, FACS-sorted from ITK-SYK^CD4-creERT2 and ITK-SYK^CD4-creERT2; Pdcd1^−/− mice on d5 after TAM were incubated for three days in vitro. P=two-sided Student's t-test. Data are presented as the mean±SD. […] Protein lysates were generated after 48 h in vitro culture. RNP, ribonucleoprotein. […] P=two-sided Logrank-test. […] ITK-SYK^+ cells were FACS-sorted from ITK-SYK^CD4-creERT2 (“Pdcd1^+/+”) and ITK-SYK^CD4-creERT2; Pdcd1^−/− (“Pdcd1^−/−”) mice on d5 after TAM, fixed, and processed for anti-H3K27ac ChIP-seq analysis. ChIP-seq, chromatin immunoprecipitation sequencing; TSS, transcription start site. FIG. 4B, Representative data from three independent experiments with three biological replicates per group. FIG. 4C, Representative data from two independent experiments with two biological replicates. […]
compound,measurement,value
"O=c1cc(N2CCOCC2)oc2c(-c3ccccc3)cccc12 [LY294002, 2-(4-morpholinyl)-8-phenyl-4H-1-benzopyran-4-one]",p-ACLY^S455 phosphorylation induced by PD-1 inactivation,could be reversed
